# Assay results reported in patent US7510852B2, “Biosynthetic genes and host cells for the synthesis of polyketide antibiotics and method of use” (priority 2002, dated 2009).
# How the values were obtained:
# [1] = tested on: chloroplast DNA replication; details: Birch and Patil, 1983-1987; cited from earlier work
# [2] = tested on: gram-positive and gram-negative bacteria; details: range of gram-positive and gram-negative bacteria; Birch and Patil, 1985a; cited from earlier work
# proteases = details: Birch and Patil, 1985a; cited from earlier work
# [3] = tested on: E. coli DH5αKT clones that spontaneously grew within the growth inhibition zone of a pALB571-pOp3-4/XALB2-3 exconjugant; assay: Cross-resistance test: albicidin production assay with X. albilineans Xa23R1; type: cell-based, Escherichia coli; details: albicidin produced by X. albilineans Xa23R1; two clones as tester strains
# Experimental: Assay of albicidin production. Albicidin production was tested by a microbiological assay as described previously (Rott et al., 1996). Rifampicin and kanamycin exconjugants were spotted with sterile toothpicks (2-mm-diameter spots) onto plates of SPA medium (2% sucrose, 0.5% peptone, 1.5% agar) and incubated at 28° C. for 2-5 days. The plates were then overlaid with a mixture of E. coli DH5α (10^7 cells in 2 ml of distilled water) plus 2 ml of molten 1.5% (wt/vol) Noble agar (Difco) at ca. 65° C. and examined for inhibition zones after 24 h at 37 C.
# Two E. coli DH5αKT clones, that spontaneously grew within the growth inhibition zone of a X. axonopodis pv. vesicatoria pALB571-pOp3-4/XALB2-3 exconjugant on SPA+tetracycline medium, were isolated and tested for resistance to albicidin. […] Comparison of chemical characteristics of the two molecules will, however, be necessary to confirm that the two molecules are identical.
# [4] = tested on: prokaryotic DNA replication; details: Birch and Patil, 1985a; cited from earlier work
substance,measurement,setting,value
albicidin,effect on chloroplast DNA replication,[1],inhibits chloroplast DNA replication
same,bactericidal activity,[2],bactericidal
same,sensitivity to proteases,proteases,insensitive to proteases
same,growth inhibition of clones resistant to the albicidin-like product,[3],No growth inhibition
same,effect on prokaryotic DNA replication,[4],inhibits prokaryotic DNA replication
